Our source for the IC50 values is patent publication US20060281763A1, “Carboxamide inhibitors of TGFbeta” (priority 2005, published 2006).

In general, IC50 refers to the concentration needed to halve the response being measured.

For the first test, the target named is T1, TGFβ R1 (Homo sapiens, UniProt P36897).
T1 sequence (P36897 34-503): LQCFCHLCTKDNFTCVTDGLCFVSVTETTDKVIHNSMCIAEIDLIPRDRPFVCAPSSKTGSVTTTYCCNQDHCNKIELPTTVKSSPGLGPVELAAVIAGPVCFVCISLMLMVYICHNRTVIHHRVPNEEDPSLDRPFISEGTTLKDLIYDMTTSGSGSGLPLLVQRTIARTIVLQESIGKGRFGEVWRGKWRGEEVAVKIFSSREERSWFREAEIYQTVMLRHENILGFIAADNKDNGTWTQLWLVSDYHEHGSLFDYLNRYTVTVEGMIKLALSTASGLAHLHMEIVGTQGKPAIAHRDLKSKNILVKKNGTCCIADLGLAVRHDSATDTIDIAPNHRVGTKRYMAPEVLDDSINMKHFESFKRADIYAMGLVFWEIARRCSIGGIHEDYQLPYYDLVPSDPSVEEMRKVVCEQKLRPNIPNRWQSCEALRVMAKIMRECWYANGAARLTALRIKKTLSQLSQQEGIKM
In words: TGFβ R1 autophosphorylation protocol (33P-ATP, phosphocellulose filter plate). It is filed as biochemical. To be noted: 10 uM ATP, 170 nM TGFβ R1, 20 minutes at room temperature, read-out: IC50 for Kinase Inhibition. The method in brief:
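Radiometric autophosphorylation: 170 nM enzyme with compound (≤1% DMSO), 10 uM ATP plus γ-33P-ATP, […] in 20 mM MOPS pH 7, 20 min at room temperature. Reaction stopped on phosphocellulose filter, washed with H3PO4 and ethanol, counted by scintillation.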
Regarding `CC(C)c1cnc(-c2cc(Cl)ccc2F)nc1Nc1ccncc1C(=O)N[C@H](C(N)=O)[C@@H](C)O` [Compound 85, N-(1-Carbamoyl-2-hydroxy-propyl)-4-[2-(5-chloro-2-fluoro-phenyl)-5-isopropyl-pyrimidin-4-ylamino]-nicotinamide], the half-maximal inhibitory concentration (IC50) amounted to 3960 nM. Still for that read-out and setting: with `COc1cnc(-c2cc(Cl)ccc2F)nc1Nc1ccncc1C(=O)NCCCNCCC1O[C@H](COCc2ccccc2)[C@@H](OCc2ccccc2)[C@H](OCc2ccccc2)[C@H]1OCc1ccccc1` (stereo partly shown) [Compound 99, 4-[2-(5-Chloro-2-fluoro-phenyl)-5-methoxy-pyrimidin-4-ylamino]-N-{3-[2-(3,4,5-tris-benzyloxy-6-benzyloxymethyl-tetrahydro-pyran-2-yl)-ethylamino]-propyl}-nicotinamide] the figure was 610 nM; with `COc1cnc(-c2cc(Cl)ccc2F)nc1Nc1ccncc1C(=O)NC[C@H](O)[C@@H](O)CN` [Compound 55, N-(4-Amino-2,3-dihydroxy-butyl)-4-[2-(5-chloro-2-fluoro-phenyl)-5-methoxy-pyrimidin-4-ylamino]-nicotinamide], 130 nM; with `COc1cnc(-c2cc(Cl)ccc2F)nc1Nc1ccncc1C(=O)NCCCn1ccnc1` [Compound 10, 4-[2-(5-Chloro-2-fluoro-phenyl)-5-methoxy-pyrimidin-4-ylamino]-N-(3-inidazol-1-yl-propyl)-nicotinamide], 60 nM.

In the case of `CONC(=O)c1cnccc1Nc1nc(-c2cc(Cl)ccc2F)ncc1OC` [Compound 120, 4-[2-(5-Chloro-2-fluoro-phenyl)-5-methoxy-pyrimidin-4-ylamino]-N-methoxy-nicotinamide], the IC50 was determined as 190 nM.

Regarding `COc1cnc(-c2cc(Cl)ccc2F)nc1Nc1ccncc1C(=O)NCC(=O)O` [Compound 2, ({4-[2-(5-Chloro-2-fluoro-phenyl)-5-methoxy-pyrimidin-4-ylamino]-pyridine 3-carbonyl}-amino)-acetic acid], the IC50 worked out at 920 nM. For `COc1cnc(-c2cc(Cl)ccc2F)nc1Nc1ccncc1C(=O)NC1CCN(CCC2O[C@H](CO)[C@@H](O)[C@H](O)[C@@H]2O)CC1` (stereo partly shown) [Compound 152, 4-[2-(5-Chloro-2-fluoro-phenyl)-5-methoxy-pyrimidin-4-ylamino]-N-{1-[2-(3,4,5-trihydroxy-6-hydroxymethyl-tetrahydro-pyran-2-yl)-ethyl]-piperidin-4-yl}-nicotinamide], the IC50 was 28 nM. On the same count and under the same terms, with `COc1cnc(-c2cc(Cl)ccc2F)nc1Nc1ccncc1C(=O)N[C@H]1CN[C@@H](C(=O)N(C)C)C1` [Compound 107, 4-[2-(5-Chloro-2-fluoro-phenyl)-5-methoxy-pyrimidin-4-ylamino]-N-(5-dimethylcarbamoyl-pyrrolidin-3-yl)-nicotinamide] the figure was 90 nM; with `NC(=O)c1cnccc1Nc1nc(-c2cc(Cl)ccc2F)ncc1Cl` [Compound 91, 4-[5-Chloro-2-(5-chloro-2-fluoro-phenyl)-pyrimidin-4-ylamino]-nicotinamide], 200 nM. In the case of `COc1cnc(-c2cc(Cl)ccc2F)nc1Nc1ccncc1C(=O)NCCCNCCO[C@H]1O[C@H](CO)[C@H](O)[C@H](O)[C@H]1O` [Compound 139, 4-[2-(5-Chloro-2-fluoro-phenyl)-5-methoxy-pyrimidin-4-ylamino]-N-{3-[2-(3,4,5-trihydroxy-6-hydroxymethyl-tetrahydro-pyran-2-yloxy)-ethylamino]-propyl}-nicotinamide], the IC50 stood at 7 nM. Same read-out and setting: with `CNC(=O)NCCNC(=O)c1cnccc1Nc1nc(-c2cc(Cl)ccc2F)ncc1OC` [Compound 68, 4-[2-(5-chloro-2-fluoro-phenyl)-5-methoxy-pyrimidin-4-ylamino]-N-[2-(3-methyl-ureido)-ethyl]nicotinamide] the figure was 1540 nM. On to `COc1cnc(-c2cc(Cl)ccc2F)nc1Nc1ccncc1C(=O)NCCNCC(C)O` (stereo not shown) [Compound 5], for which the IC50 is 20 nM. `CNC(=O)c1cnccc1Nc1nc(-c2cc(Cl)ccc2F)ncc1Cl` [Compound 119, 4-[5-Chloro-2-(5-chloro-2-fluoro-phenyl)-pyrimidin-4-ylamino]-N-methyl-nicotinamide]: the IC50 was 155 nM. For `COC[C@H]1OC(CCNCCCNC(=O)c2cnccc2Nc2nc(-c3cc(Cl)ccc3F)ncc2OC)[C@H](OC)[C@@H](OC)[C@H]1OC` (stereo partly shown) [Compound 126], the 50% inhibitory concentration (IC50) worked out at 50 nM.

For the compound `COc1cnc(-c2cc(Cl)ccc2F)nc1Nc1ccncc1C(=O)NCCCNC(C)=O` [Compound 94, N-(3-Acetylamino-propyl)-4-[2-(5-chloro-2-fluoro-phenyl)-5-methoxy-pyrimidin-4-ylamino]-nicotinamide], the IC50 worked out at 1340 nM. Same read-out and setting: under `COc1cnc(-c2cc(Cl)ccc2F)nc1Nc1ccncc1C(=O)NCCCNCCC1O[C@H](CO)[C@@H](O)[C@H](O)[C@H]1O` (stereo partly shown) [Compound 127, 4-[2-(5-Chloro-2-fluoro-phenyl)-5-methoxy-pyrimidin-4-ylamino]-N-{3-[2-(3,4,5-trihydroxy-6-hydroxymethyl-tetrahydro-pyran-2-yl)-ethylamino]-propyl}-nicotinamide] stands 63 nM; under `COc1cnc(-c2cc(Cl)ccc2F)nc1Nc1ccncc1C(=O)NCCCN1CCCC1=O` [Compound 11, 4-{2-(5-Chloro-2-fluoro-phenyl)-5-methoxy-pyrimidin-4-ylamino]-N-[3-(2-oxo-pyrrolidin-1-yl)-propyl]-nicotinamide], 120 nM.

The test is the same for the next values; noted with them: 10 uM ATP, 170 nM TGFβ R1, room temperature 20 minutes, read-out: IC50 for Kinase Inhibition.
Regarding `CN1CCN(C(=O)c2cnccc2Nc2nc(-c3cc(Cl)ccc3F)ncc2C2CCCC2)CC1` [Compound 213, {4-[2-(5-Chloro-2-fluoro-phenyl)-5-cyclopentyl-pyrimidin-4-ylamino]-pyridin-3-yl}-(4-methyl-piperazin-1-yl)-methanone], the half-maximal inhibitory concentration (IC50) came to 12900 nM.

Consider `CC(C)c1cnc(-c2cc(Cl)ccc2F)nc1Nc1ccncc1C(=O)NCCCN1CCC[C@H]1CO` [Compound 164, 4-[2-(5-Chloro-2-fluoro-phenyl)-5-isopropyl-pyrimidin-4-ylamino]-N-[3-(2-hydroxymethyl-pyrrolidin-1-yl)-propyl]-nicotinamide], for which the 50% inhibitory concentration (IC50) was found to be 2 nM. Turning to `CC(C)OCCCNC(=O)c1cnccc1Nc1nc(-c2cc(Cl)ccc2F)ncc1C(C)C` [Compound 189, 4-[2-(5-Chloro-2-fluoro-phenyl)-5-isopropyl-pyrimidin-4-ylamino]-N-(3-isopropoxy-propyl)-nicotinamide], the half-inhibitory concentration (IC50) was found to be 74 nM.

Consider `CCOCCCNC(=O)c1cnccc1Nc1nc(-c2cc(Cl)ccc2F)ncc1C(C)C` [Compound 187, 4-[2-(5-Chloro-2-fluoro-phenyl)-5-isopropyl-pyrimidin-4-ylamino]-N-(3-ethoxy-propyl)-nicotinamide], for which the IC50 was 12 nM.

On to `COc1cnc(-c2cc(Cl)ccc2F)nc1Nc1ccncc1C(=O)NCCCN1CCC[C@@H]1C(N)=O` [Compound 166, N-[3-(2-Carbamoyl-pyrrolidin-1-yl)-propyl]-4-[2-(5-chloro-2-fluoro-phenyl)-5-methoxy-pyrimidin-4-ylamino]-nicotinamide], for which the concentration for half-maximal inhibition (IC50) turned out to be 5 nM. On to `CC(C)c1cnc(-c2cc(Cl)ccc2F)nc1Nc1ccncc1C(=O)NC1CC1CO` (stereo not shown) [Compound 172, 4-[2-(5-Chloro-2-fluoro-phenyl)-5-isopropyl-pyrimidin-4-ylamino]-N-(2-hydroxymethyl-cyclopropyl)-nicotinamide], for which the half-maximal inhibitory concentration (IC50) was determined as 5 nM. With `CC(C)c1cnc(-c2cc(Cl)ccc2F)nc1Nc1ccncc1C(=O)NCCCN1CCC[C@H]1C(=O)N1CCCC1` [Compound 190, 4-[2-(5-Chloro-2-fluoro-phenyl)-5-isopropyl-pyrimidin-4-ylamino]-N-{3-[2-(pyrrolidine-1-carbonyl)-pyrrolidine-1-yl]-propyl}-nicotinamide], the IC50 stood at 9 nM. Same read-out and setting: with `CCOP(=O)(OCC)O[C@@H](C)CNC(=O)c1cnccc1Nc1nc(-c2cc(Cl)ccc2F)ncc1C(C)C` [Compound 233, Phosphoric acid 2-{(4-[2-(5-chloro-2-fluoro-phenyl)-5-isopropyl-pyrimidin-4-ylamino]-pyridine-3-carbonyl}-amino)-1-methyl-ethyl ester diethyl ester] the figure was 280 nM; with `CC(C)c1cnc(-c2cc(Cl)ccc2F)nc1Nc1ccncc1C(=O)NCCCN1CCCC[C@H]1C(=O)N1CCCC1` [Compound 183, 4-[2-(5-Chloro-2-fluoro-phenyl)-5-isopropyl-pyrimidin-4-ylamino]-N-{3-[2-(pyrrolidine-1-carbonyl)-piperidin-1-yl]-propyl}-nicotinamide], 21 nM.

Take `CCCN(CCC)C(=O)C(=O)c1cnccc1Nc1nc(-c2cc(Cl)ccc2F)ncc1OC` [Compound 240, 2-{4-[2-(5-Chloro-2-fluoro-phenyl)-5-methoxy-pyrimidin-4-ylamino]-pyridin-3-yl}-2-oxo-N,N-dipropyl-acetamide]: the half-inhibitory concentration (IC50) amounted to 3080 nM. On the same count and under the same terms, with `CC(C)c1cnc(-c2cc(Cl)ccc2F)nc1Nc1ccncc1C(=O)NC1C[C@H]1CO` (stereo in doubt) [Compound 216, 4-[2-(5-Chloro-2-fluoro-phenyl)-5-isopropyl-pyrimidin-4-ylamino]-N-(2-hydroxymethyl-cyclopropyl)-nicotinamide] the figure was 10 nM.
